Laboratory results as given in PubChem BioAssay AID2060488 (Molecular Pharmacology Branch, DTP, NCI, 2025).

System: 966289-007-R4-J1-PDC complex spheroid viability
Assay: Anticancer human tumor 966289-007-R4-J1-PDC patient-derived pancreatic adenocarcinoma cell line growth inhibition [GQUAD]
Conditions: for IC50: curve of first compound; for viability, T/C: stronger effect = lower value
Outline: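 Viability of tumor cells grown as complex spheroids with endothelial and stromal cells, exposed to drug combinations. Top concentration at or near clinical Cmax (else 10 microM), diluted in half-log increments.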

[1] = second compound 0.0316 µM, first compound 0.0316 µM
[2] = second compound 0.0316 µM, first compound 0.1 µM
[3] = second compound 0.0316 µM, first compound 0.316 µM
[4] = second compound 0.0316 µM, first compound 1 µM
[5] = second compound 0.0316 µM, first compound 3.16 µM
[6] = second compound 0.0316 µM, first compound 10 µM
[7] = second compound 0.1 µM, first compound 0.0316 µM
[8] = second compound 0.1 µM, first compound 0.1 µM
[9] = second compound 0.1 µM, first compound 0.316 µM
[10] = second compound 0.1 µM, first compound 1 µM
[11] = second compound 0.1 µM, first compound 3.16 µM
[12] = second compound 0.1 µM, first compound 10 µM
[13] = second compound 0.316 µM, first compound 0.0316 µM
[14] = second compound 0.316 µM, first compound 0.1 µM
[15] = second compound 0.316 µM, first compound 0.316 µM
[16] = second compound 0.316 µM, first compound 1 µM
[17] = second compound 0.316 µM, first compound 3.16 µM
[18] = second compound 0.316 µM, first compound 10 µM
[19] = second compound 1 µM, first compound 0.0316 µM
[20] = second compound 1 µM, first compound 0.1 µM
[21] = second compound 1 µM, first compound 0.316 µM
[22] = second compound 1 µM, first compound 1 µM
[23] = second compound 1 µM, first compound 3.16 µM
[24] = second compound 1 µM, first compound 10 µM
[25] = second compound 3.16 µM, first compound 0.0316 µM
[26] = second compound 3.16 µM, first compound 0.1 µM
[27] = second compound 3.16 µM, first compound 0.316 µM
[28] = second compound 3.16 µM, first compound 1 µM
[29] = second compound 3.16 µM, first compound 3.16 µM
[30] = second compound 3.16 µM, first compound 10 µM
[31] = second compound 10 µM, first compound 0.0316 µM
[32] = second compound 10 µM, first compound 0.1 µM
[33] = second compound 10 µM, first compound 0.316 µM
[34] = second compound 10 µM, first compound 1 µM
[35] = second compound 10 µM, first compound 3.16 µM
[36] = second compound 10 µM, first compound 10 µM
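Note: spheroids exposed to the agents for seven days before readout.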
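Throughout, for viability, T/C: percent viability relative to DMSO vehicle control wells taken as 100%.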

Structure (SMILES): CC1COCCN1c1cc(C2(O)CC3CCC(C2)O3)c2cnn(-c3ccn[nH]3)c2n1 (stereo not drawn) + Cc1[nH]c2ccc(F)cc2c1-c1nc2c3cccnc3c3ncccc3c2[nH]1
- IC50 (second compound 0.0316 µM): 117 nM
- IC50 (second compound 0.1 µM): 112 nM
- IC50 (second compound 0.316 µM): 134 nM
- IC50 (second compound 1 µM): 131 nM
- IC50 (second compound 3.16 µM): 60.9 nM
- IC50 (second compound 10 µM): 50.6 nM
- viability, T/C [1]: 112%
- viability, T/C [2]: 55.6%
- viability, T/C [3]: 13.9%
- viability, T/C [4]: 5.11%
- viability, T/C [5]: 4.75%
- viability, T/C [6]: 3.95%
- viability, T/C [7]: 111%
- viability, T/C [8]: 53.8%
- viability, T/C [9]: 14%
- viability, T/C [10]: 5.55%
- viability, T/C [11]: 4.82%
- viability, T/C [12]: 4.44%
- viability, T/C [13]: 105%
- viability, T/C [14]: 63.2%
- viability, T/C [15]: 11.7%
- viability, T/C [16]: 5.9%
- viability, T/C [17]: 4.9%
- viability, T/C [18]: 4.84%
- viability, T/C [19]: 98.5%
- viability, T/C [20]: 61.1%
- viability, T/C [21]: 14.2%
- viability, T/C [22]: 5.99%
- viability, T/C [23]: 4.35%
- viability, T/C [24]: 4.34%
- viability, T/C [25]: 81.8%
- viability, T/C [26]: 25.1%
- viability, T/C [27]: 11.7%
- viability, T/C [28]: 5.99%
- viability, T/C [29]: 6%
- viability, T/C [30]: 4.42%
- viability, T/C [31]: 71.7%
- viability, T/C [32]: 18.7%
- viability, T/C [33]: 6.61%
- viability, T/C [34]: 5.67%
- viability, T/C [35]: 4.73%
- viability, T/C [36]: 4.11%

Structure (SMILES): CC1COCCN1c1cc(C2(S(C)(=N)=O)CC2)nc(-c2ccnc3[nH]ccc23)n1 (stereo not drawn) + Cc1[nH]c2ccc(F)cc2c1-c1nc2c3cccnc3c3ncccc3c2[nH]1
- IC50 (second compound 0.0316 µM): 2500 nM
- IC50 (second compound 0.1 µM): 3030 nM
- IC50 (second compound 0.316 µM): 3130 nM
- IC50 (second compound 1 µM): 2870 nM
- IC50 (second compound 3.16 µM): 1750 nM
- IC50 (second compound 10 µM): 1450 nM
- viability, T/C [1]: 104%
- viability, T/C [2]: 91.8%
- viability, T/C [3]: 109%
- viability, T/C [4]: 90.9%
- viability, T/C [5]: 39.4%
- viability, T/C [6]: 7.57%
- viability, T/C [7]: 106%
- viability, T/C [8]: 104%
- viability, T/C [9]: 105%
- viability, T/C [10]: 96.3%
- viability, T/C [11]: 48.2%
- viability, T/C [12]: 8.79%
- viability, T/C [13]: 99.8%
- viability, T/C [14]: 100%
- viability, T/C [15]: 106%
- viability, T/C [16]: 101%
- viability, T/C [17]: 49.6%
- viability, T/C [18]: 6.54%
- viability, T/C [19]: 99.2%
- viability, T/C [20]: 103%
- viability, T/C [21]: 108%
- viability, T/C [22]: 90.6%
- viability, T/C [23]: 46.4%
- viability, T/C [24]: 7.68%
- viability, T/C [25]: 101%
- viability, T/C [26]: 106%
- viability, T/C [27]: 107%
- viability, T/C [28]: 77.5%
- viability, T/C [29]: 20.6%
- viability, T/C [30]: 5.11%
- viability, T/C [31]: 101%
- viability, T/C [32]: 100%
- viability, T/C [33]: 97.7%
- viability, T/C [34]: 69.1%
- viability, T/C [35]: 9.9%
- viability, T/C [36]: 3.37%

Structure (SMILES): COc1ccc([C@@H](O)c2cc(-c3ncnc4cc(N5CCOCC5)ccc34)c(F)cc2Cl)nn1 + Cc1[nH]c2ccc(F)cc2c1-c1nc2c3cccnc3c3ncccc3c2[nH]1
- IC50 (second compound 0.0316 µM): > 10000 nM
- IC50 (second compound 0.1 µM): > 10000 nM
- IC50 (second compound 0.316 µM): > 10000 nM
- IC50 (second compound 1 µM): > 10000 nM
- IC50 (second compound 3.16 µM): > 10000 nM
- IC50 (second compound 10 µM): > 10000 nM
- viability, T/C [1]: 106%
- viability, T/C [2]: 94.7%
- viability, T/C [3]: 108%
- viability, T/C [4]: 104%
- viability, T/C [5]: 112%
- viability, T/C [6]: 85.6%
- viability, T/C [7]: 107%
- viability, T/C [8]: 101%
- viability, T/C [9]: 106%
- viability, T/C [10]: 104%
- viability, T/C [11]: 111%
- viability, T/C [12]: 87.8%
- viability, T/C [13]: 94.5%
- viability, T/C [14]: 102%
- viability, T/C [15]: 104%
- viability, T/C [16]: 108%
- viability, T/C [17]: 111%
- viability, T/C [18]: 92.9%
- viability, T/C [19]: 91.3%
- viability, T/C [20]: 98.4%
- viability, T/C [21]: 108%
- viability, T/C [22]: 106%
- viability, T/C [23]: 109%
- viability, T/C [24]: 87.8%
- viability, T/C [25]: 100%
- viability, T/C [26]: 103%
- viability, T/C [27]: 109%
- viability, T/C [28]: 108%
- viability, T/C [29]: 103%
- viability, T/C [30]: 70.7%
- viability, T/C [31]: 103%
- viability, T/C [32]: 103%
- viability, T/C [33]: 106%
- viability, T/C [34]: 102%
- viability, T/C [35]: 105%
- viability, T/C [36]: 56.3%

Structure (SMILES): O=C(c1cc(Cc2n[nH]c(=O)c3ccccc23)ccc1F)N1CCN(C(=O)C2CC2)CC1 + Cc1[nH]c2ccc(F)cc2c1-c1nc2c3cccnc3c3ncccc3c2[nH]1
- IC50 (second compound 0.0316 µM): 4590 nM
- IC50 (second compound 0.1 µM): 4390 nM
- IC50 (second compound 0.316 µM): 3300 nM
- IC50 (second compound 1 µM): 4380 nM
- IC50 (second compound 3.16 µM): 2990 nM
- IC50 (second compound 10 µM): 2790 nM
- viability, T/C [1]: 113%
- viability, T/C [2]: 102%
- viability, T/C [3]: 111%
- viability, T/C [4]: 101%
- viability, T/C [5]: 68.6%
- viability, T/C [6]: 11.5%
- viability, T/C [7]: 107%
- viability, T/C [8]: 103%
- viability, T/C [9]: 111%
- viability, T/C [10]: 106%
- viability, T/C [11]: 64.1%
- viability, T/C [12]: 14.8%
- viability, T/C [13]: 93%
- viability, T/C [14]: 107%
- viability, T/C [15]: 106%
- viability, T/C [16]: 108%
- viability, T/C [17]: 51.4%
- viability, T/C [18]: 15%
- viability, T/C [19]: 95.2%
- viability, T/C [20]: 101%
- viability, T/C [21]: 108%
- viability, T/C [22]: 109%
- viability, T/C [23]: 64.5%
- viability, T/C [24]: 13.1%
- viability, T/C [25]: 104%
- viability, T/C [26]: 110%
- viability, T/C [27]: 111%
- viability, T/C [28]: 105%
- viability, T/C [29]: 47.2%
- viability, T/C [30]: 7.55%
- viability, T/C [31]: 104%
- viability, T/C [32]: 103%
- viability, T/C [33]: 112%
- viability, T/C [34]: 99.8%
- viability, T/C [35]: 44%
- viability, T/C [36]: 4.64%
